Source: patent US9220775B2, “Binding molecules specific for HER3 and uses thereof” (Medlmmune LLC, priority 2011, dated 2015)

How the values were obtained:
[1] = test system: HER3, pHER3 and pAKT in SW620, SW480, Colo205, LOVO, HCT15 and Caco-2 cells; test: HRG ligand-dependent signaling in CRC tumor cell lines (Western blot); format: cell-based, human; conditions: antibodies 10 μg/mL, gefitinib 5 μM, HRG 50 ng/mL
Procedure: In the presence of the HER3 ligand heregulin (HRG), HER3 heterodimerizes with EGFR or HER2, which leads to phosphorylation of HER3 and transmission of an oncogenic signal via phosphoinositide 3 kinase (PI3K) and protein kinase B (PKB), also known as AKT. A collection of CRC models were characterized to determine which receptor tyrosine kinase, EGFR or HER2, is the major driver of signaling through HER3. […] Briefly, cells were seeded into 24-well plates at a density of 1.5×10^5 cells per well. […] After 5-6 hours of incubation at 37° C., HRG was added at 50 ng/mL into one set of cells for 15 minutes at 37° C. All cells were then washed with cold PBS and lysed by the addition of 60 μL of 2×SDS (sodium dodecyl sulfate) sample buffer (Invitrogen). Lysates were transferred to 1.5 mL tubes and boiled for 5 minutes followed by chilling on ice for 2 minutes. Equal volumes (20 μL) of protein samples were resolved in NuPAGE Novex Bis-Tris gels (Invitrogen) before transfer to polyvinylidene fluoride (PVDF) membranes (Invitrogen). […] After washing, protein bands were detected on X-ray film by using SuperSignal West Pico Chemiluminescent Substrate (Pierce/Thermo Scientific).

[2] = test system: MDA-MB-361 xenograft tumors; test: Orthotopic human MDA-MB-361 breast cancer xenograft model; format: in vivo, mouse; conditions: 2C2-YTE 30 mg/kg, trastuzumab and rhuMAb 2C4 10 mg/kg, lapatinib 100 mg/kg twice daily
Procedure: (§1) Orthotopic xenografts were established by injecting 5×10^6 cells per mouse (suspended in 50% matrigel) into the mammary fat pad on the right flank of 4 to 6-week-old athymic nu/nu mice. Estrogen pellets (0.36 mg) were placed under the skin of the left flank 1-2 days before cell injection. […] Lapatinib was administered by oral gavaging at 100 mg per kilogram body weight. Caliper measurements were used to calculate tumor volumes using the formula: tumor volume=π÷6(length×width×width) • for tumors grown in mice.

BT-474 xenograft tumors = test: Orthotopic human BT-474 breast cancer xenograft model; format: in vivo, mouse; conditions: antibodies 30 mg/kg, lapatinib 100 mg/kg oral
Procedure: as §1, with “1×10^7” for “5×10^6”

MCF-7 xenograft tumors = test: Orthotopic human MCF-7 breast cancer xenograft model; format: in vivo, mouse; conditions: antibodies 10 mg/kg, paclitaxel 10 mg/kg i.v. every second day for ten days
Procedure: as §1, with “Human MCF-7 breast cancer cells were maintained at 37° C. in a 5% CO2 incubator in Optimem medium containing glutamax, 2.4/L sodium bicarbonate, Hepes and 5% fetal bovine serum. Orthotopic” for “Orthotopic”, “Paclitaxel” for “Lapatinib”, “intravenously” for “by oral gavaging”, “10” for “100”

SkBR3 cells = test: CDC assay with human serum as source of complement; format: cell-based; conditions: any concentration, data not shown
Source text: ADCC is one recognized way through which a monoclonal antibody can confer its anti-tumor efficacy in vivo.

Daudi cells = test: CDC assay against Daudi cells; format: cell-based; conditions: CD20-expressing cells, data not shown
Procedure: ADCC is one recognized way through which a monoclonal antibody can confer its anti-tumor efficacy in vivo. […] 2C2-YTE was tested in CDC assays using human serum as a source of complement.

Molecule | HRG ligand-dependent signaling (HER3, pHER3, pAKT) [1] | Anti-tumor efficacy [2] | also measured
COc1cc2ncnc(Nc3ccc(F)c(Cl)c3)c2cc1OCCCN1CCOCC1 [gefitinib] | no effect | – | –
CS(=O)(=O)CCNCc1ccc(-c2ccc3ncnc(Nc4ccc(OCc5cccc(F)c5)c(Cl)c4)c3c2)o1 [lapatinib] | – | showed anti-tumor efficacy | Anti-tumor efficacy (BT-474 xenograft tumors): tumor stasis
CC(=O)O[C@H]1C(=O)[C@@]2(C)[C@H]([C@H](OC(=O)c3ccccc3)[C@]3(O)C[C@H](OC(=O)[C@H](O)[C@@H](NC(=O)c4ccccc4)c4ccccc4)C(C)=C1C3(C)C)[C@]1(OC(C)=O)CO[C@@H]1C[C@@H]2O [paclitaxel] | – | – | Anti-tumor efficacy (MCF-7 xenograft tumors): clear anti-tumor efficacy
pertuzumab [rhuMAb 2C4] | inhibit HRG ligand-dependent signaling | showed anti-tumor efficacy | –
rituximab [reference compound] | – | – | CDC activity (SkBR3 cells): None of the antibodies including 2C2-YTE showed any detectable CDC activity; CDC activity (Daudi cells): substantial cell-kill activity
